{"source": "paper PMC8406319", "about": "“The dCache Chemoreceptor TlpA of Helicobacter pylori Binds Multiple Attractant and Antagonistic Ligands via Distinct Sites” (mBio, 2021)", "key": {"TlpALBD": {"system": "TlpALBD", "assay": "Saturation transfer difference (STD) NMR", "type": "binding, Helicobacter pylori SS1", "settings": "25 μM TlpALBD, 2.5 mM ligand", "protocol": "In the saturation transfer difference (STD) NMR experiment, the entire TlpALBD protein was first saturated at the protein resonances, and excess ligand was then added. As the ligand binds and releases from the receptor, saturation transfers from the protein to the bound ligand. This transfer appeared as an […] in the ligand intensity on epitopes that interacted with the TlpALBD protein. […] All STD NMR spectra were acquired in Shigemi tubes (Shigemi, USA) with a Bruker 600-MHz Advance spectrometer at 283 K using a 1^H-13^C-15^N gradient cryoprobe equipped with z-gradients. Protein resonances were saturated at −1.0 ppm (on-resonance) and 33 ppm (off-resonance), with a total saturation time of 2 s. A total of 512 scans per STD NMR experiment were acquired, and a Watergate sequence was used to suppress the residual HDO signal. A spin-lock filter with a 5-kHz strength and a duration of 10 ms was applied to suppress the protein background. On- and off-resonance spectra were stored and processed separately, and the final STD NMR spectra were obtained by subtracting the on- and off-resonance spectra. Control STD NMR experiments were performed identically in the absence of protein."}, "WT TlpALBD": {"system": "WT TlpALBD", "assay": "SPR competition (A-B-A) binding assay", "set-up": "species or system Helicobacter pylori SS1", "settings": "compounds at 10-fold their Kd", "protocol": "The two ligands’ binding status can be classified as either independent, shared, or preferential shared sites. For independent sites, ligand A saturates all its binding sites, and ligand B then binds to its independent site; this mode produces additive effects on the SPR signal. […] Finally, it is also possible to have preferential shared sites where ligands share the same binding site, but the protein binds to one ligand preferentially when in equilibrium.\nSPR competition assays were performed by using a Biacore S200 instrument and the A-B-A inject function ([56]). Competition A-B-A analyses were used to interrogate the specificity of the potential ligand binding site preferences of TlpALBD and to unravel the nature of the ligand-sensor interactions. This assay was designed to show if a cumulative response is observed when a second analyte (B) is flown across the bound protein saturated with the first analyte (A) (Fig. 4). […] The wild-type TlpALBD protein was immobilized as described above. […] All response data were normalized to a molecular weight of 100 Da for each analyte, allowing direct comparison of responses. Independent-site theoretical values are calculated by taking the sum of individual responses. Shared-site theoretical values are calculated by taking the sum of individual responses divided by the number of individual responses."}, "H. pylori PMSS1 WT": {"system": "H. pylori PMSS1 WT", "assay": "Ligand competition tracking (chemotaxis) assay", "type": "cell-based, Helicobacter pylori", "settings": "10 mM each; added before or after the chemoattractant", "protocol": "Consequently, we tested whether glucosamine affected H. pylori chemotaxis by developing a ligand competition tracking assay between non-chemotaxis-active and chemotaxis-active TlpA ligands. This assay is a modified version of our live-cell video microscopy assay where the addition of a chemotaxis-active ligand is followed by the addition of a non-chemotaxis-active ligand 10 s later and vice versa. […] This response was decreased regardless of whether glucosamine was added before or after the addition of the chemoattractant.\nFIG 7 Ligand competition tracking experiment between chemoactive and nonchemoactive TlpA ligands. Cultures of the H. pylori PMSS1 WT were grown in BB10 overnight and then back-diluted as described in the legend of Fig. 1. Cultures were mock treated or treated with various concentrations of compounds as indicated. The pH of the cysteine stock was adjusted using NaOH to match the pH of the water used for the untreated control. The cells were immediately filmed, and direction changes were counted over a 3-s swimming period in at least 100 cells per treatment from 3 biological replicates. Repellents increase direction changes, as exemplified by the control repellent HCl, while attractants decrease direction changes, as exemplified by the control attractant dipyridyl. Data are normalized to the values for the untreated control for each strain, as described in Materials and Methods. […]\nSwimming behavior assays were done with H. pylori PMSS1 strains grown in BB10 as described above. […] The pH of BB10 upon treatment was independently assessed using a Denver Instruments pH meter. […] For each sample, >100 3-s-long bacterial tracks from three independent cultures were analyzed manually to identify stops followed by direction changes. Data for all biological replicates under each condition were combined, and the average number of direction changes in 3 s and the standard error of the mean were calculated. […]"}}, "note": "Where a name gives a salt, the structure may show the parent alone.", "data": [{"molecule": "N=C(N)NCCC[C@H](N)C(=O)O", "note": "[Arginine, L-arginine monohydrochloride]", "values": [{"measurement": "STD NMR signal on binding TlpALBD", "setting": "TlpALBD", "value": "significant STD NMR signals were observed"}, {"measurement": "SPR response following initial saturation with glucosamine", "setting": "WT TlpALBD", "value": "no additive response was observed"}, {"measurement": "SPR response after saturation of TlpALBD with fumarate", "setting": "WT TlpALBD; compared to theoretical value", "value": "did not produce an additional response"}]}, {"molecule": "O=C(O)/C=C/C(=O)O", "note": "[Fumarate, sodium fumarate]", "values": [{"measurement": "STD NMR signal on binding TlpALBD", "setting": "TlpALBD", "value": "significant STD NMR signal was detected"}, {"measurement": "SPR response following initial saturation with glucosamine", "setting": "WT TlpALBD", "value": "no additive response was observed"}, {"measurement": "SPR response after saturation of TlpALBD with arginine", "setting": "WT TlpALBD; compared to theoretical value", "value": "increased response (additive effect)"}]}, {"molecule": "N[C@H]1C(O)O[C@H](CO)[C@@H](O)[C@@H]1O", "note": "(stereo partly drawn) [Glucosamine, D(+)-glucosamine hydrochloride]", "values": [{"measurement": "Effect on chemoattractant response to arginine", "setting": "H. pylori PMSS1 WT", "value": "prevented the chemoattractant response"}, {"measurement": "Effect on chemoattractant response to cysteine", "setting": "H. pylori PMSS1 WT", "value": "severely blunted the response"}, {"measurement": "Effect on chemoattractant response to fumarate", "setting": "H. pylori PMSS1 WT", "value": "prevented the chemoattractant response"}, {"measurement": "SPR response following saturation with arginine or fumarate", "setting": "WT TlpALBD", "value": "the response was not additive"}]}]}
